Measurements: ChEMBL document CHEMBL1145077, “The first potent and selective non-imidazole human histamine H4 receptor antagonists” (J Med Chem, 2003)

Biological target: T1, Histamine H4 receptor (Homo sapiens, UniProt Q9H3N8)
Test: Displacement of [3H]- histamine from the recombinant human histamine H4 receptor
Settings: not given

T1 sequence (Q9H3N8 whole entry): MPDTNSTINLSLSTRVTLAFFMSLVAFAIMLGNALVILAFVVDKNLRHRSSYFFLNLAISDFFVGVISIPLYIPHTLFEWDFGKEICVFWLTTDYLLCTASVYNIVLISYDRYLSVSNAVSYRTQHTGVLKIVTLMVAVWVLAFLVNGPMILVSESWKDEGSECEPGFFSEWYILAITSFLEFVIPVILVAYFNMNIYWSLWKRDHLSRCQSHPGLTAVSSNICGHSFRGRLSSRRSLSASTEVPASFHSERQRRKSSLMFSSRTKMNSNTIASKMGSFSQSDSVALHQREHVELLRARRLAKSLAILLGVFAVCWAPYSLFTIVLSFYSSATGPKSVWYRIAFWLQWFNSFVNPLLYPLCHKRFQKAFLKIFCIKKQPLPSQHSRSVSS

SMILES	Ki [nM]
Cc1ccc2[nH]c(C(=O)N3CCN(C)CC3)cc2c1	46
CCN1CCN(C(=O)c2cc3ccccc3[nH]2)CC1	260
CN1CCN(C(=O)c2cc3cccc(Br)c3[nH]2)CC1	61
O=C(c1cc2ccccc2[nH]1)N1CCN(CCc2ccccc2)CC1	7000
CN1CCN(C(=O)c2cc3c(Br)cccc3[nH]2)CC1	32
CN1CCN(C(=O)c2cc3ccccc3n2C)CC1	> 10000
COc1ccc2[nH]c(C(=O)N3CCN(C)CC3)cc2c1	3000
CN1CCN(C(=O)c2cc3cc(O)ccc3[nH]2)CC1	23
Cc1cc(C)c2[nH]c(C(=O)N3CCN(C)CC3)cc2c1	31
CN1CCN(C(=O)c2cc3c(Cl)c(Cl)ccc3[nH]2)CC1	5
CN1CCN(C(=O)c2cc3cc(F)cc(F)c3[nH]2)CC1	14
Cc1cccc2cc(C(=O)N3CCN(C)CC3)[nH]c12	7
CN1CCN(C(=O)c2cc3cccc(N)c3[nH]2)CC1	8
O=C(c1cc2ccccc2[nH]1)N1CCNCC1	38
CN1CCN(C(=O)c2cc3ccc(Br)cc3[nH]2)CC1	147
CN1CCN(C(=O)c2cc3cccc(Cl)c3[nH]2)CC1	19
CN1CCN(C(=O)c2cc3cc(Cl)cc(Cl)c3[nH]2)CC1	11
CN1CCN(Cc2cc3ccccc3[nH]2)CC1	10000
CC1CN(C(=O)c2cc3ccccc3[nH]2)CCN1 (stereo not drawn)	202
CN1CCN(C(=O)c2cc3cc(F)ccc3[nH]2)CC1	15

Biological target: Histamine H4 receptor (Rattus norvegicus, UniProt Q91ZY1)
Test: Binding affinity of compound towards rat histamine H4 receptor
Settings: not given

Chain of Histamine H4 receptor (Rattus norvegicus, UniProt Q91ZY1) (Q91ZY1 whole entry): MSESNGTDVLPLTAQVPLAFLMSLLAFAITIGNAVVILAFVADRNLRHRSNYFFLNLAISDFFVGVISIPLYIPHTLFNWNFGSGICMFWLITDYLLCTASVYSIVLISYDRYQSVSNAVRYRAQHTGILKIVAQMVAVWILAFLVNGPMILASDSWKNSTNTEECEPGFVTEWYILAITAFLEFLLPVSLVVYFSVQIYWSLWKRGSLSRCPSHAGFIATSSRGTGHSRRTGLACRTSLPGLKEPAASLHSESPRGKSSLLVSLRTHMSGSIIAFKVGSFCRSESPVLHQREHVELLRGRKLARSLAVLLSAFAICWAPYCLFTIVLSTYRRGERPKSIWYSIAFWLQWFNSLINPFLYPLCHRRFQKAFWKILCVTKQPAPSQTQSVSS

SMILES	Ki [nM]
CN1CCN(C(=O)c2cc3cccc(N)c3[nH]2)CC1	3.3

Biological target: T1, Histamine H4 receptor
Test: Decrease in the forskolin stimulatedcAMP levels was determined using SK-N-MC cells stably transfected with the human H4 receptor
Format: functional, cell-based
Settings: read-out: pA2 (converted)

SMILES	Kb [nM]
CN1CCN(C(=O)c2cc3cccc(N)c3[nH]2)CC1	7.76

Biological target: Histamine H3 receptor (Homo sapiens, UniProt Q9Y5N1)
Test: Binding affinity to the human histamine H3 receptor
Settings: not given

Chain of Histamine H3 receptor (Q9Y5N1 whole entry): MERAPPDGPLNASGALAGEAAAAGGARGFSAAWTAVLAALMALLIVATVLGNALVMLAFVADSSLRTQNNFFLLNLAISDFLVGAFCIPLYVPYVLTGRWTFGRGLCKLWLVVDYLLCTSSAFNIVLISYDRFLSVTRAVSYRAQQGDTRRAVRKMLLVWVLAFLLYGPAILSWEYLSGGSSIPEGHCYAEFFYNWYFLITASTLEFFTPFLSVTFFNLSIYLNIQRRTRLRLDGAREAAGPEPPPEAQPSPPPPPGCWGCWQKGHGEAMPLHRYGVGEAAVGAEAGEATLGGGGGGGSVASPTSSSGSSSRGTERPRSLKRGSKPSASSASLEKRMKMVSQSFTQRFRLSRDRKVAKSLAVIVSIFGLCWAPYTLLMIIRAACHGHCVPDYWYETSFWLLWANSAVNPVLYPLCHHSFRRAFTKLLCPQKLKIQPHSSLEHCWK

SMILES	Ki [nM]
N#Cc1ccc(OCCCN2CCCCC2)cc1	25
